Measurements published in ChEMBL document CHEMBL1201862, “PubChem BioAssay data set” (2004).
Activity calls are given as the source filed them.

Experiments:
Type in all cases: functional
[1] = molecular target: ALK tyrosine kinase receptor (Homo sapiens, UniProt Q9UM73);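 also: ALK tested as one member of a kinase panel screen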
[2] = molecular target: Calcium/calmodulin-dependent protein kinase type II subunit gamma (Homo sapiens, UniProt Q13555)
[3] = molecular target: Testis-specific serine/threonine-protein kinase 2 (Homo sapiens, UniProt Q96PF2);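 also: part of the Navigating the Kinome panel, target entry STK22B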
[4] = molecular target: Death-associated protein kinase 3 (Homo sapiens, UniProt O43293);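 also: measured as one member of a kinome-wide profiling panel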
[5] = molecular target: Serine/threonine-protein kinase Chk2 (Homo sapiens, UniProt O96017);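 also: CHEK2 entry within a kinome-wide screening panel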
[6] = molecular target: Aurora kinase A (Homo sapiens, UniProt O14965);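 also: value from the Navigating the Kinome kinase panel profiling, panel entry STK6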
[7] = molecular target: MAP kinase-activated protein kinase 5 (Homo sapiens, UniProt Q8IW41);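 also: measured as one member of a kinome panel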
[8] = molecular target: MAP kinase-activated protein kinase 2 (Homo sapiens, UniProt P49137);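 also: measured as one member of a kinome-wide kinase panel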
[9] = molecular target: Tyrosine-protein kinase BTK (Homo sapiens, UniProt Q06187)
[10] = molecular target: Serine/threonine-protein kinase PAK 4 (Homo sapiens, UniProt O96013);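 also: value obtained within a kinome profiling panel in which PAK4 was one of the panel members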
[11] = molecular target: Casein kinase I isoform gamma-1 (Homo sapiens, UniProt Q9HCP0);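 also: measured as the CSNK1G1 member of a kinome profiling panel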
[12] = molecular target: Proto-oncogene tyrosine-protein kinase Src (Homo sapiens, UniProt P12931);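 also: SRC entry within a kinome-wide kinase profiling panel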
[13] = molecular target: Tyrosine-protein kinase Srms (Homo sapiens, UniProt Q9H3Y6);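 also: SRMS measured as one member of a kinome-wide kinase profiling panel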
[14] = molecular target: T1, Dual specificity tyrosine-phosphorylation-regulated kinase 3 (Homo sapiens, UniProt O43781);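 also: measured as one member of a broad kinase panel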
T1 sequence (O43781 whole entry): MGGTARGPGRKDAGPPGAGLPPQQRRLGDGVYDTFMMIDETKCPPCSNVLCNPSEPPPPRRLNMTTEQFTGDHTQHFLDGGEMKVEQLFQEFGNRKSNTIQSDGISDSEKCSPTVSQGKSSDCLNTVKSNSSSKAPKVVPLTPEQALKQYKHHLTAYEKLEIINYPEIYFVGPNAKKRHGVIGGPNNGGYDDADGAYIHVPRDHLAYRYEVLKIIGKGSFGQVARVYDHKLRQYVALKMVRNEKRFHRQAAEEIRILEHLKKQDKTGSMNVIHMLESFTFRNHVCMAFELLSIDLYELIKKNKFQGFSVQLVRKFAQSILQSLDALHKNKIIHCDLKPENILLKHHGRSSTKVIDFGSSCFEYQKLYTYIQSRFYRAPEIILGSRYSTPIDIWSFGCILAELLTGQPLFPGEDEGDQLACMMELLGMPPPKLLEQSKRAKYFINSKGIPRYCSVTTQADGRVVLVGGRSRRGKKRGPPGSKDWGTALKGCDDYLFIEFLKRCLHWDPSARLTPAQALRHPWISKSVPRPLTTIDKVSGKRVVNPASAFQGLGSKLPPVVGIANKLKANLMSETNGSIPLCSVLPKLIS

[15] = molecular target: MAP kinase-activated protein kinase 3 (Homo sapiens, UniProt Q16644);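 also: value comes from a kinome-wide profiling panel in which MAPKAPK3 is one of the panel members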
[16] = molecular target: Serine/threonine-protein kinase Nek4 (Homo sapiens, UniProt P51957)
[17] = molecular target: T2, Dual specificity tyrosine-phosphorylation-regulated kinase 4 (Homo sapiens, UniProt Q9NR20)
T2 sequence (Q9NR20 whole entry): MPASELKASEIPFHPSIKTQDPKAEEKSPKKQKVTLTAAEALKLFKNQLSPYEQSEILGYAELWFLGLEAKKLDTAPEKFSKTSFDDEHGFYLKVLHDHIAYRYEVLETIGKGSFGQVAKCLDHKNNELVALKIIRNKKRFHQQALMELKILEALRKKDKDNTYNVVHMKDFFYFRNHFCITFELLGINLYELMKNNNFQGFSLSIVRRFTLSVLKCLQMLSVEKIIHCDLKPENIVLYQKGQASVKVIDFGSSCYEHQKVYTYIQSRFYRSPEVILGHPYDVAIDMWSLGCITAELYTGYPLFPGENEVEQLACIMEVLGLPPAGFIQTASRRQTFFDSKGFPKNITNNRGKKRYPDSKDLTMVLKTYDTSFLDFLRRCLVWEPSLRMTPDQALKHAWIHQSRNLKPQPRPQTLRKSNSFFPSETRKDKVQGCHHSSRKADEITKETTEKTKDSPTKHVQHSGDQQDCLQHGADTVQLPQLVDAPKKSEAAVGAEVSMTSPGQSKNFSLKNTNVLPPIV

[18] = molecular target: T3, Interleukin-1 receptor-associated kinase 4 (Homo sapiens, UniProt Q9NWZ3)
T3 sequence (Q9NWZ3 whole entry): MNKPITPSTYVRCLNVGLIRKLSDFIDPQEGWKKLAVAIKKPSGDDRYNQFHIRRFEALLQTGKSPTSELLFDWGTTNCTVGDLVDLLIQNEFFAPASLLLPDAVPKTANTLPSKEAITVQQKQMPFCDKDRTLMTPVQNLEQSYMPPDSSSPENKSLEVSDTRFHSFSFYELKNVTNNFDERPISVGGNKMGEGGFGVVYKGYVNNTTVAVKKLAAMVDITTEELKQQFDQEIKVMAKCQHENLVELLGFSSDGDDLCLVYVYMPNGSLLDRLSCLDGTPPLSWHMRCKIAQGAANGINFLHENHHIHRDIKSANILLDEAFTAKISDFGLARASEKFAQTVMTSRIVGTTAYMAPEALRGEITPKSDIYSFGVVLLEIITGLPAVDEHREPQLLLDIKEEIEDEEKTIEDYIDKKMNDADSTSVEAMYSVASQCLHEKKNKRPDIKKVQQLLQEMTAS

[19] = molecular target: Serine/threonine-protein kinase PLK1 (Homo sapiens, UniProt P53350);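 also: PLK1 measured as one member of a kinome-wide profiling panel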
[20] = molecular target: Serine/threonine-protein kinase MRCK alpha (Homo sapiens, UniProt Q5VT25)
Sequence of Serine/threonine-protein kinase MRCK alpha (Q5VT25 whole entry): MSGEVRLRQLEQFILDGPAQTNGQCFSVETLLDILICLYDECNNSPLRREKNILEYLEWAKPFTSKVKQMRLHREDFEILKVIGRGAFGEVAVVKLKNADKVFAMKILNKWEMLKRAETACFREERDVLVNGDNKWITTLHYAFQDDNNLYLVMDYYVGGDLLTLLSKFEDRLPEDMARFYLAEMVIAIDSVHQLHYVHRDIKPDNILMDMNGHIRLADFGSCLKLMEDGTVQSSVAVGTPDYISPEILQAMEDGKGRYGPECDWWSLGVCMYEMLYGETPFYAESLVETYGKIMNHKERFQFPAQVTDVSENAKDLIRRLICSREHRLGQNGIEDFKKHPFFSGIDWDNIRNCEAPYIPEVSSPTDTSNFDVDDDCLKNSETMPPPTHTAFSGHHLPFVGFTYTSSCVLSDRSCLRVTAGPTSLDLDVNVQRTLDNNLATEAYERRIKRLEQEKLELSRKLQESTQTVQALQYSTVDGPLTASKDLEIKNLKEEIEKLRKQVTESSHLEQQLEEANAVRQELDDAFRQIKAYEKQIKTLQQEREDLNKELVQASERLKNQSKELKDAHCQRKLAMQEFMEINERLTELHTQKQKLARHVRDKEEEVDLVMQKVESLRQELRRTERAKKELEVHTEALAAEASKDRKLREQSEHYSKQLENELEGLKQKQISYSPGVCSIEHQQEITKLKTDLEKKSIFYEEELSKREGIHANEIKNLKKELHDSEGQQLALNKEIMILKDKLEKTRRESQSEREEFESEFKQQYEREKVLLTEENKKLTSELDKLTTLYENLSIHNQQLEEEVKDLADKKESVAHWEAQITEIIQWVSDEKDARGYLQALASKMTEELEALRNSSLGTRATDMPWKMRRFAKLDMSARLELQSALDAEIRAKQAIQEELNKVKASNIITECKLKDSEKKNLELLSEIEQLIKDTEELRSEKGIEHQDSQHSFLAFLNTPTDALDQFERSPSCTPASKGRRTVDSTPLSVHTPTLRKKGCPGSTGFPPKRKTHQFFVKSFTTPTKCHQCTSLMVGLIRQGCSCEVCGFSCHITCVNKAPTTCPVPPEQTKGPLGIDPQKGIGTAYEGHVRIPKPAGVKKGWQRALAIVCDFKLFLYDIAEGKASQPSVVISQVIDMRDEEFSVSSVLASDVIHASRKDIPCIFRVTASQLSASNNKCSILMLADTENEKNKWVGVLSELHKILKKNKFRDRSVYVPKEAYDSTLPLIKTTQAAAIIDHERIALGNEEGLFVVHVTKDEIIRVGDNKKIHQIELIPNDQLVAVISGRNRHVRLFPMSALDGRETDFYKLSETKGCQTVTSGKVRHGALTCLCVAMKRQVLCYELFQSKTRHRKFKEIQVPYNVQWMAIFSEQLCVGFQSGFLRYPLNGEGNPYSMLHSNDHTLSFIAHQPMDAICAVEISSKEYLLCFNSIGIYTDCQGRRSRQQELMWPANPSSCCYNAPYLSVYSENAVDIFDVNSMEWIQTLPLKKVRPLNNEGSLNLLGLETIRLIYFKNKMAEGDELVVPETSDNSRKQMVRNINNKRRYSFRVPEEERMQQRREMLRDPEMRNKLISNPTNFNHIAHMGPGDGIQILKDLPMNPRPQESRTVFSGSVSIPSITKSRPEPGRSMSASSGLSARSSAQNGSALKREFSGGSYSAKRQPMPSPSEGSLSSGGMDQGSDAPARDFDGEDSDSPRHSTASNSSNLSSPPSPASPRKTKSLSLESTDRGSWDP

Sequence of Calcium/calmodulin-dependent protein kinase type II subunit gamma (Q13555 whole entry): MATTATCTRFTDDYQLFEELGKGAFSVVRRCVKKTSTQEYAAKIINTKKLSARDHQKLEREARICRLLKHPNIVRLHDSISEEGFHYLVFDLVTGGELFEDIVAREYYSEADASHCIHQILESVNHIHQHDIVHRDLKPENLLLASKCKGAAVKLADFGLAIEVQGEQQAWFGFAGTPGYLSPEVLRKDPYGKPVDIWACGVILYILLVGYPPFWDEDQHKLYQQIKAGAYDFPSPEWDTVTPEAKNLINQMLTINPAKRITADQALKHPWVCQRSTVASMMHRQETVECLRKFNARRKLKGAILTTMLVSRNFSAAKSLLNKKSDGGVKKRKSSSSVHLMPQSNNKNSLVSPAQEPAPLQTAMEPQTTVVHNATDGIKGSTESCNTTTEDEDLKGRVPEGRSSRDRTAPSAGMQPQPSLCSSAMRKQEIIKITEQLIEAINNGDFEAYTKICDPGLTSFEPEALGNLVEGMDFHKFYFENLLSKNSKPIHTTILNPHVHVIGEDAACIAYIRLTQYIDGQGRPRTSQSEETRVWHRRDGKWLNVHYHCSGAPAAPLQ
Sequence of Death-associated protein kinase 3 (O43293 whole entry): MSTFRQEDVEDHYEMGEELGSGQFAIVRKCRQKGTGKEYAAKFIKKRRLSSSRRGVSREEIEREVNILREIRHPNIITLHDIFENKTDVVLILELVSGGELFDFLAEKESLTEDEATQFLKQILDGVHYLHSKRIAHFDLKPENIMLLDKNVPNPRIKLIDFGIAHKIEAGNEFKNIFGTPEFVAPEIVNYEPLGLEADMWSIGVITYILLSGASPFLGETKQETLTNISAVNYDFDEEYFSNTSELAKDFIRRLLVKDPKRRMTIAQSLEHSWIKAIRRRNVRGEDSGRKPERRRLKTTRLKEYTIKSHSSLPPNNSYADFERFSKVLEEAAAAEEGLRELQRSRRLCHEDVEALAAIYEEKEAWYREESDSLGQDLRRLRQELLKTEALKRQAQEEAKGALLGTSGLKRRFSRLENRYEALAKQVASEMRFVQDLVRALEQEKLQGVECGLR
Sequence of Serine/threonine-protein kinase Nek4 (P51957 whole entry): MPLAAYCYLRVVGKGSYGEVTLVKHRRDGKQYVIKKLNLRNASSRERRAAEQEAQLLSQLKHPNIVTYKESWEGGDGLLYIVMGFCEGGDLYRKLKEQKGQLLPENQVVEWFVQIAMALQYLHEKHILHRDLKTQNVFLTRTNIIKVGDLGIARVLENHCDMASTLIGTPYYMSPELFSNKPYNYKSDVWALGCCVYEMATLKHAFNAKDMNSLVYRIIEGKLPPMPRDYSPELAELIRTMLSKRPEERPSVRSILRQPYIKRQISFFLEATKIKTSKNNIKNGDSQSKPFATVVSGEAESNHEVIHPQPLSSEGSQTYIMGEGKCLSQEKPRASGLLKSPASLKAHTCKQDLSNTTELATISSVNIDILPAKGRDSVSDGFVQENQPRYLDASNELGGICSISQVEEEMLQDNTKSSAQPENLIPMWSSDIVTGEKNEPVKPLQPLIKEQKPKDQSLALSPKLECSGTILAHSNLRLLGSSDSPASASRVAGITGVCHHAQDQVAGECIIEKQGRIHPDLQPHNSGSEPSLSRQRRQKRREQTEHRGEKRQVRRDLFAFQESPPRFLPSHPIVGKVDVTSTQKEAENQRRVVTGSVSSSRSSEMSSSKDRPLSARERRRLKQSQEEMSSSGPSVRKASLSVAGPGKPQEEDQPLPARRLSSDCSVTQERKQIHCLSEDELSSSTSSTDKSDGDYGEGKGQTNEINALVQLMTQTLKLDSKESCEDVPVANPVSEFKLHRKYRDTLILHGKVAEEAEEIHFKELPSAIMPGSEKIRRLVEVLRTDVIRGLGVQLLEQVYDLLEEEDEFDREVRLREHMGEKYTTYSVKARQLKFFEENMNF
Sequence of Serine/threonine-protein kinase Chk2 (O96017 whole entry): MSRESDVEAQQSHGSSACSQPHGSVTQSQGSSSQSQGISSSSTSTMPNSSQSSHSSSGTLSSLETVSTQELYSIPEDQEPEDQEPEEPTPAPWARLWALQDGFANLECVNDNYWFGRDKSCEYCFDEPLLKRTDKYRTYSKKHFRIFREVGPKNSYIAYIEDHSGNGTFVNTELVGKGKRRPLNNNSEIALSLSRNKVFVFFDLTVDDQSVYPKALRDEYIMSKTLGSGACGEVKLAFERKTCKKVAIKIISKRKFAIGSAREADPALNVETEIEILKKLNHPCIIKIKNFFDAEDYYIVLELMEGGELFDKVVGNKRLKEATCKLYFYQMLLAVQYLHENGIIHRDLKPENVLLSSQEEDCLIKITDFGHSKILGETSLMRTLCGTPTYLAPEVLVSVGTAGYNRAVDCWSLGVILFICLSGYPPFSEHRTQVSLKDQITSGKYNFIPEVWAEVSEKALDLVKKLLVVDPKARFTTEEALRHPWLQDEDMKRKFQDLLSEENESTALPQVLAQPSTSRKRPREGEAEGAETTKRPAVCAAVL
Sequence of Casein kinase I isoform gamma-1 (Q9HCP0 whole entry, canonical isoform): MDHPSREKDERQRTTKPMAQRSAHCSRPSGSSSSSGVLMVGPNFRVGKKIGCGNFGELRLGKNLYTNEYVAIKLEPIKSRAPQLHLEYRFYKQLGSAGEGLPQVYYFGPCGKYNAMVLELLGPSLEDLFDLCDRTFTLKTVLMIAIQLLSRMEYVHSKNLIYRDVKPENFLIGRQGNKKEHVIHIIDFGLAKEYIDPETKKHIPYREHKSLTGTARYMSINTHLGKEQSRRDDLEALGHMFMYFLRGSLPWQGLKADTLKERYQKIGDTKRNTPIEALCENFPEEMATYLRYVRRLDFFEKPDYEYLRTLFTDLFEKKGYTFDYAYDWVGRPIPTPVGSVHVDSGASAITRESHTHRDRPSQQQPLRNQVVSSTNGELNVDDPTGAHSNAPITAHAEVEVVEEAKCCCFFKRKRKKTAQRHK
Sequence of MAP kinase-activated protein kinase 3 (Q16644 whole entry): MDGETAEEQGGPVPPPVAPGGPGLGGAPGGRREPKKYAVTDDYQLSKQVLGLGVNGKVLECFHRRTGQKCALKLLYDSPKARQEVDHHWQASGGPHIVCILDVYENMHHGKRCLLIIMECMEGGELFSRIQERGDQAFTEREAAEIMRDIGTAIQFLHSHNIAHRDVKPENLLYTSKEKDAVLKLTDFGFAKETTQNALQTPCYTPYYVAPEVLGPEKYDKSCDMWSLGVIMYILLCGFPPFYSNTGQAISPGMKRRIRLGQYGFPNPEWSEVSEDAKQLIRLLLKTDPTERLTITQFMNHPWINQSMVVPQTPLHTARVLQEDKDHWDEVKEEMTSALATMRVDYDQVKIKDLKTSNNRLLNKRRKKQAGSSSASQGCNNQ

NC(=O)c1cc(-c2ccnc(N)n2)[nH]c1-c1ccc(Cl)cc1Cl
8: pKi [14] | pKi [17]
5.2: pKi [2]
6.4: pKi [4]
7.6: pKi [11]
5.9: pKi [5] | pKi [20]
inactive: Ki [1] > 1260 nM | Ki [3] > 1580 nM | Ki [6] > 1580 nM | Ki [7] > 1580 nM | Ki [8] > 7940 nM | Ki [9] > 1260 nM | Ki [10] > 5010 nM | Ki [12] > 2000 nM | Ki [13] > 1580 nM | Ki [15] > 10000 nM | Ki [19] > 7940 nM
6.2: pKi [18]
7.3: pKi [16]
active: Ki [2] 6310 nM | Ki [4] 398 nM | Ki [5] 1260 nM | Ki [11] 25.1 nM | Ki [14] 10 nM | Ki [16] 50.1 nM | Ki [17] 10 nM | Ki [18] 631 nM | Ki [20] 1260 nM

NC(COc1cncc(-c2ccc3c(c2)C(=Cc2ccco2)C(=O)N3)c1)Cc1c[nH]c2ccccc12 (centres undefined)
inactive: Ki [1] > 1260 nM | Ki [6] > 1580 nM | Ki [7] > 1580 nM | Ki [13] > 1580 nM | Ki [15] > 10000 nM
active: Ki [2] 25.1 nM | Ki [3] 794 nM | Ki [4] 20 nM | Ki [5] 50.1 nM | Ki [8] 2000 nM | Ki [9] 501 nM | Ki [10] 1260 nM | Ki [11] 1260 nM | Ki [12] 398 nM | Ki [14] 7.94 nM | Ki [16] 1580 nM | Ki [17] 398 nM | Ki [18] 251 nM | Ki [19] 2510 nM | Ki [20] 316 nM
